In patent publication US11530244B2, “Cyclic polypeptides for PCSK9 inhibition” (priority 2018, dated 2022):
Starred links: 1 amine or outer side, 2 acyl side, 3 side chain; linkers in the order of their positions; H or OH if unused. Positions of bridges follow the written chain, without caps; N, C: chain ends. Non-standard residues stand in square brackets, D forms with d. Residues, ends and D or L forms follow the SMILES beside them. NMeTrp(1-Me) = CN[C@@H](Cc1cn(C)c2ccccc12)C(=O)O; Trp(5-F) = N[C@@H](Cc1c[nH]c2ccc(F)cc12)C(=O)O; NMeW = CN[C@@H](Cc1c[nH]c2ccccc12)C(=O)O; Phe(4-CN) = N#Cc1ccc(C[C@H](N)C(=O)O)cc1; X4 = O=C(CCSCc1cccc(CSCCN[*:1])c1)[*:2]; mXylylene = c1cc(C[*:1])cc(C[*:2])c1; NMeY = CN[C@@H](Cc1ccc(O)cc1)C(=O)O; NMeD = CN[C@@H](CC(=O)O)C(=O)O; NMeL = CN[C@@H](CC(C)C)C(=O)O; αMeP = C[C@@]1(C(=O)O)CCCN1; NMeS = CN[C@@H](CO)C(=O)O; NMeA = CN[C@@H](C)C(=O)O; Aze = O=C(O)[C@@H]1CCN1; Nva = CCC[C@H](N)C(=O)O; Ac3c = NC1(C(=O)O)CC1; Mpa = O=C(O)CCS; Sar = CNCC(=O)O

Target: human PCSK9 / human LDLR EGFa domain interaction (Homo sapiens (Human), UniProt Q8NBP7)
Sequence (Q8NBP7 153-692): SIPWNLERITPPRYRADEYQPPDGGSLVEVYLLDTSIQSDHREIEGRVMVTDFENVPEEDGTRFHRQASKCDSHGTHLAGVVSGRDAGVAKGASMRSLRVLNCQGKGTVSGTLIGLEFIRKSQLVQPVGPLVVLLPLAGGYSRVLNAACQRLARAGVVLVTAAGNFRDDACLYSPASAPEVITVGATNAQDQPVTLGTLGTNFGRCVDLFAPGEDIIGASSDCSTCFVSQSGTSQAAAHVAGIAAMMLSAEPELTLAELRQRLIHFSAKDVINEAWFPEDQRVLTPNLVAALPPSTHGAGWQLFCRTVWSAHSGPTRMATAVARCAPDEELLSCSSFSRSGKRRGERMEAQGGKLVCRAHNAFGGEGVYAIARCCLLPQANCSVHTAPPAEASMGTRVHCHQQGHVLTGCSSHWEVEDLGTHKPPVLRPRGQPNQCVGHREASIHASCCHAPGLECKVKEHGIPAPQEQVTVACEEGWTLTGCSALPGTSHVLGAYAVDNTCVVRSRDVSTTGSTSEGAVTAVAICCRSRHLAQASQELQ
Sequence (Q8NBP7 31-152 partner): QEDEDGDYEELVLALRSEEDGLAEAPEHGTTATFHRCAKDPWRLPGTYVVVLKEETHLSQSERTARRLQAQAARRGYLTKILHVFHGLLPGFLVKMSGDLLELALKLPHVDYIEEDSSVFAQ
Assay: TR-FRET assay of inhibition of the PCSK9-LDLR protein-protein interaction
Format: binding
Conditions: TR-FRET, 20 nM human PCSK9, 20 nM human LDLR EGFa domain, 2 hours room temperature; read-out: IC50
Protocol: A time-resolved fluorescence resonance energy (TR-FRET) assay was used to measure inhibition of the PCSK9-LDLR protein-protein interaction. Briefly, 20 nM avitag-biotinylated human PCSK9 was incubated with 20 nM his-tagged human LDLR EGFa domain in the presence of 5 nM LANCE Ulight Streptavidin (Perkin Elmer) and 5 nM europium-Anti-6×His (Perkin Elmer) for 2 hours covered at room temperature in buffer containing 50 mM HEPES, 150 mM NaCl, 5 mM CaCl2), 0.01% BSA and 0.01% Surfactant P20. Compounds were tested in dose-response and concentrations giving half-maximal inhibition calculated using a 4-parameter fit equation.

SMILES | IC50
C[C@H]1C(=O)N(C)[C@@H](Cc2ccc(O)cc2)C(=O)N2CCC[C@H]2C(=O)N[C@H](C(N)=O)CSCc2cccc(c2)CSCCC(=O)N[C@@H](CCCCN)C(=O)N(C)CC(=O)N(C)[C@@H](Cc2c[nH]c3ccccc23)C(=O)N[C@@H](Cc2c[nH]c3ccccc23)C(=O)N[C@@H](CC(=O)O)C(=O)N1C [Compound 015] ([Mpa]K[Sar][NMeW]WD[NMeA][NMeY]PC-NH2; linker 1-10 via mXylylene) | 1 to 12.1 µM
COc1ccc(C[C@@H]2NC(=O)[C@@H](CC(C)C)NC(=O)[C@H](CC(C)C)NC(=O)CCSCc3cccc(c3)CSC[C@@H](C(N)=O)NC(=O)[C@]3(C)CCCN3C(=O)[C@H](Cc3ccc(OC)cc3)NC(=O)[C@H]([C@@H](C)OC)NC(=O)[C@H](CC(C)C)N(C)C(=O)[C@H](Cc3ccc(OC)cc3)NC2=O)cc1 [Compound 037] ([Mpa]L[dL]Y(Me)Y(Me)[NMeL]T(Me)Y(Me)[αMeP]C-NH2; linker 1-10 via mXylylene) | 0.1 to 1 µM
NCCCC[C@@H]1NC(=O)CCCn2cc(nn2)CC[C@@H](C(N)=O)NC(=O)[C@@H]2CCCN2C(=O)[C@H](Cc2ccc(O)cc2)NC(=O)[C@H](Cc2c[nH]cn2)NC(=O)[C@H](CC(=O)O)NC(=O)[C@H](Cc2c[nH]c3ccc(F)cc23)NC(=O)[C@H](Cc2c[nH]c3ccc(F)cc23)NC(=O)CNC1=O [Compound 186] | 0.1 to 1 µM
CCC[C@H](NC(C)=O)C(=O)N(C)[C@@H](CO)C(=O)N[C@@H](CCCCN)C(=O)N[C@H]1CSCc2cccc(c2)CSC[C@@H](C(N)=O)NC(=O)[C@@H]2CCCN2C(=O)[C@H](Cc2ccc(O)cc2)NC(=O)[C@H](Cc2c[nH]cn2)NC(=O)[C@H](CC(=O)O)NC(=O)[C@H](Cc2c[nH]c3ccc(F)cc23)NC(=O)[C@H](Cc2c[nH]c3ccc(F)cc23)NC(=O)CNC(=O)[C@H](CCCCN)NC1=O [Compound 145] (Ac-[Nva][NMeS]KCKG[Trp(5-F)][Trp(5-F)]DHYPC-NH2; linker 4-13 via mXylylene) | 1 to 12.1 µM
C[C@@H]1NC(=O)[C@@H]2CCN2C(=O)[C@H](Cc2c[nH]c3ccc(F)cc23)NC(=O)[C@H](Cc2c[nH]c3ccc(F)cc23)NC(=O)[C@@H](C)NC(=O)[C@H](CCCCN)NC(=O)CCSCc2cccc(c2)CSCCNC(=O)[C@]2(C)CCCN2C(=O)[C@H](Cc2ccc(O)cc2)NC1=O [Compound 002] (cyclo(AY[αMeP][X4]K[dA][Trp(5-F)][Trp(5-F)][Aze])) | 21 to 50 µM
C[C@H]1NC(=O)[C@H](CCCCN)NC(=O)CCSCc2cccc(c2)CSCCNC(=O)[C@]2(C)CCCN2C(=O)[C@H](Cc2ccc(C#N)cc2)NC(=O)[C@H](Cc2c[nH]cn2)NC(=O)[C@H](CC(=O)O)NC(=O)[C@H](Cc2c[nH]c3ccc(F)cc23)NC(=O)[C@H](Cc2c[nH]c3ccc(F)cc23)NC1=O [Compound 300] (cyclo(DH[Phe(4-CN)][αMeP][X4]K[dA][Trp(5-F)][Trp(5-F)])) | 0.1 to 1 µM
NCCCC[C@@H]1NC(=O)CCSCc2cccc(c2)CSC[C@@H](C(N)=O)NC(=O)C2(CC2)NC(=O)[C@H](Cc2ccc(O)cc2)NC(=O)[C@H](Cc2c[nH]cn2)NC(=O)[C@H](CC(=O)O)NC(=O)[C@H](Cc2c[nH]c3ccc(F)cc23)NC(=O)[C@H](Cc2c[nH]c3ccc(F)cc23)NC(=O)CNC1=O [Compound 195] ([Mpa]KG[Trp(5-F)][Trp(5-F)]DHY[Ac3c]C-NH2; linker 1-10 via mXylylene) | 21 to 50 µM
C[C@@H]1NC(=O)CCSCc2cccc(c2)CSC[C@@H](C(N)=O)NC(=O)[C@@H]2CCCN2C(=O)[C@H](Cc2ccc(O)cc2)N(C)C(=O)[C@H](Cc2c[nH]cn2)NC(=O)[C@H](CC(=O)O)N(C)C(=O)[C@H](Cc2cn(C)c3ccccc23)N(C)C(=O)[C@H](Cc2c[nH]c3ccccc23)N(C)C(=O)CN(C)C1=O [Compound 259] ([Mpa]A[Sar][NMeW][NMeTrp(1-Me)][NMeD]H[NMeY]PC-NH2; linker 1-10 via mXylylene) | 1 to 12.1 µM
NCCCC[C@@H]1NC(=O)CCCCn2cc(nn2)CCC[C@@H](C(N)=O)NC(=O)[C@@H]2CCCN2C(=O)[C@H](Cc2ccc(O)cc2)NC(=O)[C@H](Cc2c[nH]cn2)NC(=O)[C@H](CC(=O)O)NC(=O)[C@H](Cc2c[nH]c3ccc(F)cc23)NC(=O)[C@H](Cc2c[nH]c3ccc(F)cc23)NC(=O)CNC1=O [Compound 153] | 1 to 12.1 µM
